# Source: publication PMC4191963, “DNA Binding Properties of the Actin-Related Protein Arp8 and Its Role in DNA Repair” (PLoS ONE, 2014)
# What was measured:
# [1] = target: T1, human Arp8 (Homo sapiens, UniProt Q9H981, E266A); assay: agarose gel shift, loss of dsDNA binding; conditions: 1 mM ATP, 1 mM MgCl2, pH 7.5, 37 °C, phiX174 circular dsDNA; ATP-binding pocket
# T1 construct: gene ACTR8; full length, N-terminal His6 tag removed with PreScission protease, expressed in E. coli
# [2] = target: T2, human Arp8 (Homo sapiens, UniProt Q9H981); assay: agarose gel shift, loss of dsDNA binding; conditions: 1 mM MgCl2, pH 7.5, 37 °C, phiX174 dsDNA
# T2 construct: gene ACTR8; full length, N-terminal His6 tag removed with PreScission protease, expressed in E. coli
# [3] = target: Arp8 (Homo sapiens, UniProt Q9H981 1-624); assay: competition EMSA (PAGE); 3 µM each of ssDNA, dsDNA, 3'-overhang; 250 mM NaCl; highest apparent affinity; 20 mM HEPES-NaOH pH 7.5, 160 mM NaCl (250 mM in oligonucleotide competition), 1 mM MgCl2, 1 mM DTT, 0.1 mg/ml BSA, 8% glycerol (not listed for competition), +/- 1 mM ATP or ADP, 37 C 15 min; conditions: protein: recombinant; tags: His6 (N-terminal) removed by PreScission; single-stranded
# Arp8, sequence (Q9H981 whole entry): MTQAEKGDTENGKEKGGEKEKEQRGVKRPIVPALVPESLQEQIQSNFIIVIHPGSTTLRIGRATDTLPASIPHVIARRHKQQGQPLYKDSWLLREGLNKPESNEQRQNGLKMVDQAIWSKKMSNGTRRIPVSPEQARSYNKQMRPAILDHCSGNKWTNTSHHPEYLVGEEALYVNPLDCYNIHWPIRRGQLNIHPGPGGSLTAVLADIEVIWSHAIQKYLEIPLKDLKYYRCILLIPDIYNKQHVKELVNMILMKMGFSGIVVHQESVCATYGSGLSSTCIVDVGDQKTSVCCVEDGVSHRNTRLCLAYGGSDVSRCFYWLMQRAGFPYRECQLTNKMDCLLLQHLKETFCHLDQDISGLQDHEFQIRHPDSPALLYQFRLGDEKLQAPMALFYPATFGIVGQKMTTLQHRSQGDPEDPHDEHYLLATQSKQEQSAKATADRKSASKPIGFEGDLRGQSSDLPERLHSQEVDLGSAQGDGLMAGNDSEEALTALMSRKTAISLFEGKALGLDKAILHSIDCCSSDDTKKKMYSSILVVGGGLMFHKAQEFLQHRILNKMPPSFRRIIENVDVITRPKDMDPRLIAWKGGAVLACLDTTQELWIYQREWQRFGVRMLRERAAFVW
# T2 sequence (Q9H981 whole entry): as above
# T1 sequence (Q9H981 whole entry E266A): as the sequence (Q9H981 whole entry) above, with E266A counted along it
molecule,measurement,setting,value
Nc1ncnc2c1ncn2[C@@H]1O[C@H](COP(=O)(O)OP(=O)(O)OP(=O)(O)O)[C@@H](O)[C@H]1O [ATP],"agarose gel shift, loss of dsDNA binding",[1],ATP only partially inhibited the DNA binding activity of the Arp8 E266A mutant
same,"agarose gel shift, loss of dsDNA binding","[2]; 1 mM ATP, ATP-binding pocket",Addition of ATP to the binding assay mixture significantly decreased the binding of Arp8
Nc1ncnc2c1ncn2[C@@H]1O[C@H](COP(=O)(O)OP(=O)(O)O)[C@@H](O)[C@H]1O [ADP],"agarose gel shift, loss of dsDNA binding",[2]; 1 mM ADP,addition of ADP only slightly decreased the binding of Arp8 to dsDNAs
CCTCGATCCTACCAACCAGATGACGCGCTGCTACGTGCTACCGGAAGTCG (ssDNA) [a3 ssDNA],binding result,[3],binds
